Data taken from PubChem BioAssay (NCI).
Values joined by “and” are separate entries in the source; they are usually repeats but may differ in a detail not shown here. Identical values can stand only once.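 96-well plates; 48 h exposure; 5 concentrations. Endpoints by linear interpolation between flanking doses. Not reached: highest tested concentration assigned. The concentration for 50% growth inhibition is given as GI50. TGI is the concentration that stops growth completely.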

Key:
Assay in all cases: DTP human tumour cell line panel, 48 h
MOLT-4 leukemia = test system: MOLT-4 leukemia
SN12C renal = test system: SN12C renal
A549 NSCLC = test system: A549 NSCLC
SK-OV-3 ovarian = test system: SK-OV-3 ovarian
U251 CNS = test system: U251 CNS
UACC-257 melanoma = test system: UACC-257 melanoma
ACHN renal = test system: ACHN renal
UO-31 renal = test system: UO-31 renal
SR leukemia = test system: SR leukemia
UACC-62 melanoma = test system: UACC-62 melanoma

Compound | GI50 (MOLT-4 leukemia) | TGI (MOLT-4 leukemia) [µM] | GI50 (SN12C renal) [µM] | TGI (SN12C renal) [µM] | GI50 (A549 NSCLC) | TGI (A549 NSCLC) [µM] | GI50 (SK-OV-3 ovarian) [µM] | TGI (SK-OV-3 ovarian) [µM] | GI50 (U251 CNS) | TGI (U251 CNS) [µM] | GI50 (UACC-257 melanoma) [µM] | TGI (UACC-257 melanoma) [µM] | GI50 (ACHN renal) [µM] | TGI (ACHN renal) [µM] | GI50 (UO-31 renal) [µM] | TGI (UO-31 renal) [µM] | GI50 (SR leukemia) [µM] | TGI (SR leukemia) [µM] | GI50 (UACC-62 melanoma) [µM] | TGI (UACC-62 melanoma) [µM]
CC1(C)CN(CCNc2nccc(-c3c(-c4cccc(O)c4)nc4sccn34)n2)S(=O)(=O)N1 | 11.3 µM | > 33.2 | 9.86 | > 33.2 | 14.2 µM | > 33.2 | 7.86 | > 33.2 | 8.78 µM | > 33.2 | 2.12 | > 33.2 | 7.07 | > 33.2 | 13.3 | > 33.2 | 3.34 | > 33.2 | 0.116 | 3.3
CC(=N\O)/C(C)=N/O.CC(=N\O)/C(C)=N/O.[Fe].[NH2-].c1c[nH]cn1 | > 100 µM | > 100 | > 100 | > 100 | > 100 µM | > 100 | > 100 | > 100 | > 100 µM | > 100 | > 100 | > 100 | > 100 | > 100 | 1.43 | 4.34 | > 100 | > 100 | > 100 | > 100
C/C=C1/C(=Cc2[nH]c(C=c3[nH]/c(=C/C4=NC(=O)C(CC)=C4C)c(C)c3CCC(=O)O)c(CCC(=O)O)c2C)NC(=O)C1C (centres undefined) |  | 37.2 |  | > 50 |  | 27 |  | > 50 |  | > 50 |  | 24.9 |  | > 50 |  | 20.1 |  | > 50 |  | 20.3
CCOC(=O)CCn1cnc(N)n1 |  | > 100 |  | > 100 |  | > 100 |  | > 100 |  | > 100 |  | > 100 |  | > 100 |  | > 100 |  | > 100 |  | > 100
O=c1[nH]c2ccccc2n1C1CCN(CCOc2ccccc2)CC1 | 48 µM | > 100 | 34.3 | > 100 | 58.3 µM | > 100 | 42.9 | > 100 | 20.5 µM | > 100 | 70.7 | > 100 | 40.4 | > 100 | 34.1 | > 100 | 44 | > 100 | 50.5 | > 100
NC(Cc1c[nH]c2cccc(F)c12)C(=O)O (centres undefined) | 41.7 µM and 338 µM | > 4500 | 959 | > 4500 | 98.7 µM and 679 µM | > 4500 | 518 | > 4500 | 50.8 µM and 340 µM | 1280 | 1380 | > 4500 | 679 | > 4500 | 842 | > 4500 |  | > 4500 | 582 | 1990
O=C(NCc1ccccc1)C1C(=O)C(=O)N(Cc2ccccc2)C1=O (centres undefined) |  | > 100 |  | > 100 |  | > 100 |  | > 100 |  | > 100 |  | > 100 |  | > 100 |  | > 100 |  | > 100 |  | > 100
O=C(COc1cccc(/C=C2\Oc3ccc4ccccc4c3C2=O)c1)c1ccc([N+](=O)[O-])cc1 | 13.3 µM | 38.6 | 13.9 | 32.5 | > 100 µM | > 100 | 64.2 | > 100 | 14.7 µM | 27.8 | > 100 | > 100 | 60.2 | > 100 | 36.7 | > 100 | 0.305 | > 100 | 14.1 | 30.4
Cc1ccc(NC2=CC(=O)C(=O)c3ccccc32)cc1 | 3.71 µM | > 100 | 1.65 | 3.32 | 1.72 µM | 3.68 | 11.3 | 23.5 | 2.01 µM | 5.71 | 1.43 | 2.8 | 1.92 | 5.33 | 1.17 | 3.79 | 3.96 | > 100 | 1.73 | 3.23
